Results reported in US10653749B2, “Targeting GIV-GEF-GI signaling for treating diverse diseases” (The Regents of the University of California, priority 2015, dated 2020).
Entries after “also recorded” stand apart in the source; their conditions may differ.

T1: GST-tagged domains of IRS1 (Rattus norvegicus, UniProt P35570)
T1 construct: GST-tagged IRS1 domains (N: aa 2-516, M: aa 526-859 and C: 900-1235); made in house
T1 sequence (P35570 2-516): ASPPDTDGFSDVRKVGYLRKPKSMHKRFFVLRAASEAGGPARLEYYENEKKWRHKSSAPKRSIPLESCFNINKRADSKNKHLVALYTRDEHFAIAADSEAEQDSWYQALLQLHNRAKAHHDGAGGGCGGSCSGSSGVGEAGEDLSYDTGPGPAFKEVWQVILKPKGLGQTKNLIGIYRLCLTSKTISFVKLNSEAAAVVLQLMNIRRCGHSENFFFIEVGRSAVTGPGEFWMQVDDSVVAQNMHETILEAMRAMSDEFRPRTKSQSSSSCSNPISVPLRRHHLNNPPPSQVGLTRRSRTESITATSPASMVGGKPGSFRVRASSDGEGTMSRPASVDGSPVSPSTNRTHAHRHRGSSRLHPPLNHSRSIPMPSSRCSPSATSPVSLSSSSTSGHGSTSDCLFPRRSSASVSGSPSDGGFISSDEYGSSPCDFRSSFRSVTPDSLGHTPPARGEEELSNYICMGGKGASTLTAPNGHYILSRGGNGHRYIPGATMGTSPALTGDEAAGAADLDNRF


Assays:
[1] = tested on: GIV binding to GST-Gαi3 [preloaded with GDP]; assay: GST-Gαi3 pulldown of GIV from lysates of PA-treated L6 myoblasts; conditions: L6 treated with PA 0.5 mM, 16 h
Method: (§1) Purified GST-Gαi3, GST-tagged IRS1 domains or GST alone were immobilized on glutathione-Sepharose beads (GE Healthcare) for 1 h at room temperature as described before (Garcia-Marcos et al., 2012; Ghosh et al., 2010; Ghosh et al., 2008; Lin et al., 2011). L6 lysates or His-GIV CT protein were added to each tube, and binding reactions were carried out for 4 h at 4° C. with constant tumbling in binding buffer [50 mM Tris-HCl (pH 7.4), 100 mM NaCl, 0.4% (v:v) Nonidet P-40, 10 mM MgCl2, 5 mM EDTA, 2 mM DTT, protease inhibitor mixture]. Beads were washed (4×) with 1 mL of wash buffer [4.3 mM Na2HPO4, 1.4 mM KH2PO4 (pH 7.4), 137 mM NaCl, 2.7 mM KCl, 0.1% (v:v) Tween 20, 10 mM MgCl2, 5 mM EDTA, 2 mM DTT] and bound complexes were eluted by boiling in Laemmli's sample buffer. When GST-Gαi3 was used in the assay, both binding buffer and washing buffer were supplemented with 30 μM GDP and bound proteins were eluted by incubating at 37° C.

[2] = tested on: GIV, IRS1 and Akt phosphorylation; assay: Metabolic insulin signaling in L6 cells by immunoblotting; format: cell-based, rat
Method: (§2) Transfection was carried out with GeneJuice (Novagen) for DNA plasmids or Oligofectamine (Invitrogen) for siRNA oligos according to manufacturer's protocols. Silencer negative Control scrambled (Scr) siRNA used as control was purchased from Ambion and the previously validated (Enomoto et al., 2005) GIV siRNA sequence used was custom-ordered from Dharmacon. For TAT-construct transduction, cells were incubated with 300-800 nM of the TAT-proteins for 30 min at 37° C. prior to three washes with PBS and addition of fresh growth media. For assays involving insulin (Novagen) stimulation of TAT-treated cells, such stimulation was carried out 90 min after transduction.
(§3) Unless otherwise indicated, serum starvation of cells for use in experiments involving insulin stimulation was carried out by growing cells overnight in the presence of no serum (i.e., 0% FBS) in the case of Cos7 and L6 cells, or in the presence of 0.2% FBS in the case of HeLa cells. To induce IR, cells were pre-treated with Sodium Palmitate (PA; Sigma-Aldrich) (0.5 mM, stock solution at 5 mM/5% FFA-free BSA in ethanol) or vehicle control (5% FFA-free BSA in ethanol) for 16 h. To reverse IR with TZDs, cells were treated with 50 μM Pioglitazone (Pio) (Sigma-Aldrich) or DMSO (vehicle control) for 18 h prior to stimulation with 100 nM insulin. Treatment with PKCθ pseudo-substrate inhibitor (Santa Cruz Biotechnologies) was performed at 10 μM for 16 h.
Protein samples for immunoblotting were run on SDS/PAGE gels and transferred onto PVDF membranes (Millipore). Membranes were blocked with PBS containing 5% non-fat milk (or with 5% BSA when probing for phosphorylated proteins) before incubation with primary antibodies. GIV was detected using rabbit anti-GIV coiled-coil (Millipore) (1:500); GIV-CT (Santa Cruz Biotechnologies) (1:500); phospho-Tyr1764-GIV (1:500) and phospho-Ser1689-GIV (21st Century Biochemicals) (1:250) antibodies. Other antibodies used in this work include rabbit polyclonal antibodies against Gαi3 (1:333), pan-GP (1:250) and phospho-IRS1 (1:500) from Santa Cruz Biotechnologies; and phospho-Akt (1:250); total Akt (1:250); phospho-ERK (1:250); phospho-AS160 (1:250); total InsRβ (1:500) and total IRS1 (1:500) from Cell signaling. Mouse monoclonal Abs against phospho-InsRβ (1:250), His (1:1000), β-tubulin (1:1000), GFP (1:500) from Santa Cruz Biotechnologies, and control IgG (Bio-Rad Laboratories) were commercially obtained. Goat anti-rabbit and goat anti-mouse Alexa Fluor 680 or IRDye 800 F(ab′)2 secondary antibodies were purchased from Li-Cor Biosciences. Images were processed with ImageJ software (NIH) and assembled as figure panels using Photoshop and Illustrator software (Adobe).

L6 myotubes = assay: Fluorometric 2-deoxyglucose uptake assay after insulin stimulation; format: cell-based, rat
Method: as §2, §3
Glucose uptake assays were performed without the use of radioisotopes as described previously (Yamamoto et al., 2006). HeLa and L6 cells grown in 6-well plates were stimulated with insulin in KRH Buffer [50 mM HEPES, 137 mM NaCl, 4.7 mM KCl, 1.85 mM CaCl2, 1.3 mM MgSO4, and 0.1% (w/v) BSA-FFA free, pH 7.4]. Cells were incubated with 1 mM 2-deoxyglucose (2-DG) for 20 min, washed, and subsequently lysed with 0.1 N NaOH. The lysates were transferred into eppendorf tubes and samples were incubated in a water bath maintained at 80° C. for 45 min to degrade endogenous NAD(P)H and NAD(P)^+. An equal volume each of 0.1 N HCl and Triethanolamine (200 mM TEA, pH 8.1) buffer were added to each tube. Samples were subsequently mixed with assay solution [50 mM TEA, 0.02% BSA-FFA free, 10 μM NAD(P)^+, 0.2 U/ml Diaphorase, 6 nM Resazurin sodium, 15 U/ml G6PDH (Santa Cruz Biotechnologies)] and incubated at 37° C. for 90 min. Fluorescence intensity (λex=550 nM, λem=590 nM) was determined using a Tecan Inifinite M1000 PRO and normalized to total protein, as determined using BCA assay (Thermo Scientific).

[3] = target: T1, GST-tagged domains of IRS1; assay: Pulldown of recombinant His-GIV-CT with GST-tagged IRS1 domains; format: binding; conditions: recombinant proteins
Method: as §1

| GIV's ability to bind Gi (Gαi3) [1] | Molecule | phosphorylation of GIV at Y1764 ([2]; L6 cells treated with PA) | phosphorylation of GIV at S1689 ([2]; L6 cells treated with PA (0.5 mM, 16 h)) | induction of IR (glucose-uptake response to insulin) (L6 myotubes; L6-GIV-SA cells (S1689A)) | induction of IR (glucose-uptake response to insulin) (L6 myotubes; L6-GIV-WT cells) | binding to IRS1 domains [3] |
| --- | --- | --- | --- | --- | --- | --- |
| reduced; also recorded: loss of binding | CCCCCCCCCCCCCCCC(=O)[O-].[Na+] [PA, Sodium Palmitate, reference compound] | suppressed | enhanced | resistant to PA | induced IR | – |
| – | His-GIV-CT: Recombinant His-tagged GIV-CT (aa 1660-1870) expressed from pET28b (protein, left off: small tags and cut ends, Recombinant His-tagged GIV-CT (aa 1660-1870) expressed from pET28b) ETLESRHHKIKTGSPGSEVVTLQQFLEESNKLTSVQIKSSSQENLLDEVMKSLSVSSDFLGKDKPVSCGLARSVSGKTPGDFYDRRTTKPEFLRPGPRKTEDTYFISSAGKPTPGTQGKIKLVKESSLSRQSKDSNPYATLPRASSVISTAEGTTRRTSIHDFLTKDSRLPISVDSPPAAADSNTTAASNVDKVQESRNSKSRSREQQSS | – | – | – | – | specifically bound the N-terminus of IRS1 |
